Experimental data: publication PMC7949057, “The cytoprotective protein MANF promotes neuronal survival independently from its role as a GRP78 cofactor” (The Journal of Biological Chemistry, 2021)
Numbering of substitutions follows the chain as printed.

Legend:
Format in all cases: binding
MANF [1] = target: T1, MANF (Homo sapiens, UniProt P55145); assay: microscale thermophoresis
T1 construct: mature secreted protein (about 18 kDa, signal peptide cleaved), made in CHO-derived cells (QMCF, Icosagen), no tag told; amine-labelled with RED-NHS for MST
T1 sequence (P55145 25-182): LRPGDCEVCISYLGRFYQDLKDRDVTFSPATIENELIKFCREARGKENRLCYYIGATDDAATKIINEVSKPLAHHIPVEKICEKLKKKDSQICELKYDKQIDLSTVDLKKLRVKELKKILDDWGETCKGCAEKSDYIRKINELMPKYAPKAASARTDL
From the text: microscale thermophoresis on MANF | MANF did interact with ADP, ATP, and AMP–PNP with Kd-s of […]

C-MANF = target: T2, C-MANF (Homo sapiens, UniProt P55145); assay: […]-HSQC NMR chemical shift perturbation; details: 100 μM C-MANF, ATP:protein 0.5 to 10; 20 mM sodium phosphate pH 6.5, 50 mM NaCl; 25 °C; site at V134, K135
T2 sequence (P55145 120-182 limits assumed): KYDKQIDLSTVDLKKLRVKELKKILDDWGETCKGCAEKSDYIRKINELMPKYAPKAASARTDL

MANF [2] = target: T3, MANF (Homo sapiens, UniProt P55145, V137G/K138A, form not given); assay: microscale thermophoresis; details: labelled MANF 50 nM; 10 mM Na-phosphate pH 7.4, 1 mM MgCl2, 3 mM KCl, 150 mM NaCl, 0.05% Tween-20; 25 °C; 1:1 fit
T3 construct: mature secreted protein (about 18 kDa, signal peptide cleaved), made in CHO-derived cells (QMCF, Icosagen), no tag told; amine-labelled with RED-NHS for MST
T3 sequence (P55145 25-182 V137G/K138A): T1 sequence (P55145 25-182) with V113G, K114A
From the text: microscale thermophoresis on MANF | the mutant was able to bind ATP similarly to the wild-type MANF

GRP78 = target: T4, GRP78 (Cricetulus griseus, UniProt G3I8R9); assay: fluorescent nucleotide release (ex […] nm, em […] nm); details: labelled compound; GRP78 1.25 μM, MABA-ADP 1.25 μM, chase ATP 125 μM, no MANF; 50 mM HEPES-KOH pH 7.4, 100 mM KCl, 10 mM MgCl2
T4 construct: gene HSPA5; full-length recombinant, N-terminal His-tag, labelled with RED-tris-NTA for MST
T4 sequence (G3I8R9 19-654): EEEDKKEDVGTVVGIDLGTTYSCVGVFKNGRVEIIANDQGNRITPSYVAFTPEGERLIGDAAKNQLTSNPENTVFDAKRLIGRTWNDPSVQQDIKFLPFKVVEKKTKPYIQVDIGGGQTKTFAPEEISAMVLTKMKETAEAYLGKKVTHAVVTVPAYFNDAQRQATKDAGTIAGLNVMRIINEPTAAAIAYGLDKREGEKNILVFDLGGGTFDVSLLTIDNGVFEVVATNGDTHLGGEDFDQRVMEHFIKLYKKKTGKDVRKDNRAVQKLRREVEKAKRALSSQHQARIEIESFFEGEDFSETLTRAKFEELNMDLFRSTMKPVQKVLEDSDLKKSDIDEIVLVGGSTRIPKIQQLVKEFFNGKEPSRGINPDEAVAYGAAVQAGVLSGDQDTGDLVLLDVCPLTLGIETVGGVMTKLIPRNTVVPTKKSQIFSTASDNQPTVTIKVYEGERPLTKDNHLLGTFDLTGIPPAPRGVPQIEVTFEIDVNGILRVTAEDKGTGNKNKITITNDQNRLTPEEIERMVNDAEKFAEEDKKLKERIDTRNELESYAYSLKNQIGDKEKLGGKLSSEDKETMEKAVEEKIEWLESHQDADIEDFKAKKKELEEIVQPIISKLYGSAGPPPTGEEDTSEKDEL

Kd (MANF [1]) [µM]	Kd (MANF [2]) [µM]	SMILES	15N-HSQC NMR chemical shift perturbation (C-MANF)	koff (GRP78)
880 ± 280		Nc1ncnc2c1ncn2[C@@H]1O[C@H](COP(=O)(O)OP(=O)(O)O)[C@@H](O)[C@H]1O [ADP]		
560 ± 170		Nc1ncnc2c1ncn2[C@@H]1O[C@H](COP(=O)(O)OP(=O)(O)NP(=O)(O)O)[C@@H](O)[C@H]1O [AMP–PNP]		
830 ± 390	339 ± 160	Nc1ncnc2c1ncn2[C@@H]1O[C@H](COP(=O)(O)OP(=O)(O)OP(=O)(O)O)[C@@H](O)[C@H]1O [ATP]	the ATP binding site is located at the C-terminal domain of MANF	
		CNc1ccccc1C(=O)NCCCCNc1nc2c(N)ncnc2n1[C@@H]1O[C@H](COP(=O)(O)OP(=O)(O)O)[C@@H](O)[C@H]1O [MABA–ADP]		determine the mean koff rates of MABA–ADP release
